The record followed here is publication PMC4324493, “Synthesis, ^68Ga-Radiolabeling, and Preliminary In Vivo Assessment of a Depsipeptide-Derived Compound as a Potential PET/CT Infection Imaging Agent” (BioMed Research International, 2015).

In one data set the test system is E. coli (ATCC 25922). Put plainly: Bacterial association assay (MALDI-TOF-MS), E. coli. The format is binding, Escherichia coli. The settings on record: for Kd: E. coli 1.5 × 10^8 CFU, 20-100 μM compound, 37°C, 3 h, MALDI-TOF-MS, read-out: affinity binding constant (K); for bacterial binding and internalization (qualitative): E. coli, membrane-associated (sample 1) and cell-internalized (sample 2) fractions by MALDI-TOF-MS. As to the method: (§1) MALDI-TOF-MS analysis was performed on an Autoflex III MALDI-TOF mass spectrometer (Bruker, Coventry, United Kingdom) with a 337 nm nitrogen laser operating in a linear mode at an accelerated voltage of 20 kV. The α-cyano-4-hydroxycinnamic acid matrix was applied: the matrix solution was prepared by making a saturated solution of the matrix powder into TA30 solution (30% ACN and 70% water containing 0.1% TFA). A MALDI plate-sandwich method was used by spotting the compounds between spots of matrix solution. Analyses were done in triplicates; spectra were collected manually and the mass peak intensities were recorded. S. aur and E. coli strains were cultured at 37°C overnight and tested with the peptide (TBIA101), the peptide-conjugate (DOTA-TBIA101), and the gallium(III)-complexed derivative (^natGa-DOTA-TBIA101). The bacterial concentration was kept at 1.5 × 10^8 colony forming units (CFU). Five different concentrations (20, 40, 60, 80, and 100 μM) of the above-mentioned compounds were used for all experiments, following the described method. The final reaction volume was 600 μL. Bacteria and compound mixtures were incubated at 37°C in an orbital shaker at 100 rpm for 3 h. After incubation, the cells were centrifuged at 3000 ×g for 20 min and the supernatant was removed. The bacterial pellet was washed twice with 200 μL of phosphate buffered saline (pH 7.4) and 200 μL of 80% ACN containing 0.1% TFA was added to dissolve the pellet followed by vigorous mixing followed by centrifugation at 3000 ×g for 20 min. The supernatant (sample 1) was collected, representing the membrane-associated compound fraction. The residual pellet was treated with 200 μL of 80% ACN (sample 2), representing the cell-internalized compound fraction. Bacterial persistence in samples 1 and 2 was qualified with MALDI-TOF-MS.

For data set [1], the system named is Staphylococcus aureus (ATCC 25923) (S. aur). Put plainly: Bacterial association assay (MALDI-TOF-MS), S. aur. The format is binding. The settings on record: for affinity binding constant (K): S. aur 1.5 × 10^8 CFU, 20-100 μM compound, 37°C, 3 h, MALDI-TOF-MS; for bacterial binding and internalization (qualitative): S. aur, membrane-associated (sample 1) and cell-internalized (sample 2) fractions by MALDI-TOF-MS. As to the method: as §1

Another data set in a line: in vitro. The data set is classed as cell-based. The settings on record: human; for CC50 at 120 h: MT-4 cells. The procedure: The reduction of 2,3-bis-(2-methoxy-4-nitro-5-sulfophenyl)-2-H-tetrazolium-5-carboxanilide (XTT) was used to determine the cellular cytotoxicity of TBIA101, DOTA-TBIA101, and ^natGa-DOTA-TBIA101, as described by Scudiero et al.. MT-4 cells were obtained through the NIH AIDS Reagent Program, Division of AIDS, NIAID, NIH: MT-4 from Dr. Douglas Richman and were cultured and all incubations were done in RPMI medium containing 10% fetal calf serum at 37°C and 5% CO2-atmosphere. A 6 × 10^5 cells/mL concentration was used to seed cells into 96-well culture plates (total cell number of 2 × 10^4 per well) followed by exposure to eight 5-fold dilutions of the stock compound solutions (1 mg/mL). The plates were incubated for 5 days before XTT was added to react for 4 h. Formazan production was quantified, measuring absorbance at 450 nm (reference wavelength 620 nm), and related to the absorbance of untreated control cells (RPMI background). Cytotoxicity was determined by extrapolating the inhibitory concentration at 50% (IC50).

Residues, ends and D or L forms follow the SMILES beside them. No end group written: not given here. *: point of attachment. DOTA = O=C(O)CN1CCN(CC(=O)O)CCN(CC(=O)*)CCN(CC(=O)O)CC1

Usually CC50 stands for the concentration giving 50% cytotoxicity. In the case of `CC[C@H](C)[C@H](NC(=O)CNC(=O)CNC(=O)CN1CCN(CC(=O)O)CCN(CC(=O)O)CCN(CC(=O)O)CC1)C(=O)N[C@H](C(=O)N[C@@H](CC(C)C)C(=O)N[C@H](C(=O)N1CCC[C@H]1C(=O)N[C@@H](CC(C)C)C(=O)N1CCC[C@H]1C(N)=O)C(C)C)[C@@H](C)O` [DOTA-TBIA101] ({DOTA}-GGITLVPLP-NH2), in the data set on E. coli (ATCC 25922), the Kd worked out at 0.028 ± 0.006 nM; the “bacterial binding and internalization (qualitative)” value was “binding and no detectable internalization”. Further, in data set [1], the affinity binding constant (K) worked out at 0.029 ± 0.006 nM; the “bacterial binding and internalization (qualitative)” value is “binding and no detectable internalization”. Besides, the midpoint of cytotoxicity in “in vitro”, the CC50 at 120 h, lay at 42.1 µM.

Broadly, the IC50 is the point on the concentration scale where inhibition reaches its midpoint. A high value points to weaker potency in that assay. For the compound `CC[C@H](C)[C@H](NC(=O)[C@@H](NC(=O)[C@H](CC(C)C)NC(=O)[C@@H](NC(=O)[C@@H]1CCCN1C(=O)[C@H](CC(C)C)NC(=O)[C@@H]1CCCN1C(=O)CN1CCN(CC(=O)O)CCN(CC(=O)O)CCN(CC(=O)O)CC1)C(C)C)[C@@H](C)O)C(=O)NCC(=O)NCC(N)=O` [natGa-DOTA-TBIA101, metal not drawn] ({DOTA}-PLPVLTIGG-NH2), in the data set on E. coli (ATCC 25922), the Kd worked out at 2.58 ± 1.04 nM; the “bacterial binding and internalization (qualitative)” value is “internalization”. For the same compound, in data set [1], the affinity binding constant (K) worked out at 2.97 ± 0.86 nM; the “bacterial binding and internalization (qualitative)” value is listed as “internalization”. In the data set “in vitro”, this compound returned an IC50 at 5 days of 33.7 µM.

As for “GGITLVPLP-NH2 (C-terminus assumed) [TBIA101]”, in the data set on E. coli (ATCC 25922), the Kd is 0.022 ± 0.006 nM; the “bacterial binding and internalization (qualitative)” value was “binding and internalization”. Moreover, in data set [1], the affinity binding constant (K) is 0.023 ± 0.007 nM; the “bacterial binding and internalization (qualitative)” value is “binding and internalization”. Besides, half-maximal cytotoxicity in the data set “in vitro” (CC50 at 120 h) was put at 63.2 µM.
